Experimental findings from paper PMC8881077 (Journal of Enzyme Inhibition and Medicinal Chemistry, 2022) are described below.

Structures are written as SMILES.

One test addresses T1, ratAChE (Rattus norvegicus, UniProt P37136).
T1 construct: AChE from 5% rat cortex homogenate or human erythrocytes (Sigma Co.); from tissue; host or cells: 5% rat cortex homogenate
T1 sequence (P37136 32-614): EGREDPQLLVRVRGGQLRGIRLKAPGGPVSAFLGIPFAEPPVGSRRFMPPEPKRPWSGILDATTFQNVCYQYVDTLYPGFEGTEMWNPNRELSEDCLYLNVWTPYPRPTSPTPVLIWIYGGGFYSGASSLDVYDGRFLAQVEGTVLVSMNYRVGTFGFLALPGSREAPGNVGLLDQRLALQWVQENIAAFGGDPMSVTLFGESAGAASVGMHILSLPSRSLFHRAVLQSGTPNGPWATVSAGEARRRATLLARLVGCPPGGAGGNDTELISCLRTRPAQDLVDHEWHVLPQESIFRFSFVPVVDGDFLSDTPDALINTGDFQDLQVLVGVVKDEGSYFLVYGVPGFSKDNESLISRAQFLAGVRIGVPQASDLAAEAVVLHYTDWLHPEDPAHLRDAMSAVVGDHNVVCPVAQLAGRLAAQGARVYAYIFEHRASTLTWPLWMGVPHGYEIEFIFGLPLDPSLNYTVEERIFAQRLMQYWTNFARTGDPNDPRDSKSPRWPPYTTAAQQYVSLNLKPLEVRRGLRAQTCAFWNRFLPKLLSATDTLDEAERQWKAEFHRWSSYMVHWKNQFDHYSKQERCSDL
Nature of the test: biochemical. To be noted: for SI: Selectivity Index = IC50 (BuChE)/IC50 (AChE), rat enzymes; for IC50: from 5% rat cortex homogenate, read-out: IC50 ± SD ratAChE.

Another test has as its target T2, ratBuChE (Rattus norvegicus, UniProt Q9JKC1).
T2 construct: BuChE from rat serum or human serum (Sigma Co.); from tissue; host or cells: rat serum
The test is described as follows: ratBuChE inhibition, modified Ellman's method. The test is classed as biochemical. On the technique in general: Ellman's reagent forms a yellow product with free thiols.

For test [1] the following is noted: Trolox as standard.
Protocol: The skeleton compounds naringenin and apigenin were also evaluated for comparison purposes, and vitamin E analogue Trolox was used as a standard.
The antioxidant potency of target compounds was tested using an oxygen radical absorbance capacity fluorescein (ORAC-FL) assay.

T2 sequence (Q9JKC1 24-597): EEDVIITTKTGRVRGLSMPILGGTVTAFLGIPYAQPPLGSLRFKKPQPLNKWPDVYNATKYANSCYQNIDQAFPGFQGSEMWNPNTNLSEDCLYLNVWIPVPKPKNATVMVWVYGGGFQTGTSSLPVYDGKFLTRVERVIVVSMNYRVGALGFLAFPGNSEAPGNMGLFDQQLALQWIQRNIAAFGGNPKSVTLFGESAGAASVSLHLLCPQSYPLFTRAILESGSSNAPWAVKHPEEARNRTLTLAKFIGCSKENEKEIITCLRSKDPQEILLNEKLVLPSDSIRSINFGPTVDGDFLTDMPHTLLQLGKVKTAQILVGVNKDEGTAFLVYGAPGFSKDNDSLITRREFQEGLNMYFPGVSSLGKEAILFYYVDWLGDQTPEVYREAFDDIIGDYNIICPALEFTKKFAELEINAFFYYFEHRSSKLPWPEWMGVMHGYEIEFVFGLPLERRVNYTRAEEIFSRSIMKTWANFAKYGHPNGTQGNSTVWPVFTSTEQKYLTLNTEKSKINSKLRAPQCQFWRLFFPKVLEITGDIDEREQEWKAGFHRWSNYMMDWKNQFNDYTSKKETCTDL
Protocol for ratAChE: (§1) The AChE and BuChE inhibitory activities of the synthesised compounds were evaluated using the Ellman assay with slight modification. AChE from 5% rat cortex homogenate or human erythrocytes (Sigma Co.). BuChE from rat serum or human serum (Sigma Co.).
Protocol for ratBuChE: as §1

On to `O=C1CC(c2ccc(O)cc2)Oc2cc(OCCCCN3CCCCC3)cc(O)c21` (stereo not drawn) [Compound 5a, 5-hydroxy-2–(4-hydroxyphenyl)-7–(4-(piperidin-1-yl)butoxy)chroman-4-one], for which, at ratAChE, the SI was 3.1 and the IC50 is 6.7 ± 0.31 µM. Half-maximal inhibition against ratBuChE (IC50) required 20.9 ± 0.68 µM. The ORAC in test [1] is recorded as 2.2 ± 0.03 μM of Trolox equivalent/μM of tested compound.

On to `O=C1CC(c2ccc(O)cc2)Oc2cc(OCCCCN3CCc4ccccc4C3)cc(O)c21` (stereo not drawn) [Compound 5b, 7–(4-(3,4-dihydroisoquinolin-2(1H)-yl)butoxy)-5-hydroxy-2–(4-hydroxyphenyl)chroman-4-one], for which, at ratAChE, the SI is 3.0 and the IC50 turned out to be 5.8 ± 0.19 µM. Moreover, half-maximal inhibition against ratBuChE (IC50) required 17.4 ± 0.52 µM. Also, in test [1], the ORAC is 2.1 ± 0.04 μM of Trolox equivalent/μM of tested compound.

Take `CCN(CCCCOc1cc(O)c2c(c1)OC(c1ccc(O)cc1)CC2=O)Cc1ccccc1` (stereo not drawn) [Compound 5c, 7–(4-(benzyl(ethyl)amino)butoxy)-5-hydroxy-2–(4-hydroxyphenyl)chroman-4-one]: the SI on ratAChE was 5.8. The IC50 on ratAChE is 3.9 ± 0.44 µM; against ratBuChE, 22.6 ± 0.23 µM. Besides, the ORAC in test [1] is given as 2.3 ± 0.02 μM of Trolox equivalent/μM of tested compound.

`CCN(CCCCOc1cc(O)c2c(c1)OC(c1ccc(O)cc1)CC2=O)Cc1ccccc1OC` (stereo not drawn) [Compound 5d, 7–(4-(ethyl(2-methoxybenzyl)amino)butoxy)-5-hydroxy-2–(4-hydroxyphenyl)chroman-4-one]: on ratAChE, the SI is listed as 9.1 and the IC50 is 2 ± 0.46 µM. Moreover, on ratBuChE, the IC50 came to 18.1 ± 0.56 µM. The ORAC in test [1] was 2.2 ± 0.02 μM of Trolox equivalent/μM of tested compound.

As to `O=C1CC(c2ccc(O)cc2)Oc2cc(OCCCCN3CCN(Cc4ccccc4)CC3)cc(O)c21` (stereo not drawn) [Compound 5e, 7–(4-(4-benzylpiperazin-1-yl)butoxy)-5-hydroxy-2–(4-hydroxyphenyl)chroman-4-one], at ratAChE, the SI came out at 1.4 and the IC50 worked out at 9.2 ± 0.72 µM. Also, on ratBuChE, the IC50 was found to be 13.2 ± 0.43 µM. Besides, in test [1], the ORAC is given as 2.5 ± 0.01 μM of Trolox equivalent/μM of tested compound.

Take `O=C1CC(c2ccc(O)cc2)Oc2cc(OCCCCCN3CCC(Cc4ccccc4)CC3)cc(O)c21` (stereo not drawn) [Compound 5g, 7-((5–(4-benzylpiperidin-1-yl)pentyl)oxy)-5-hydroxy-2–(4-hydroxyphenyl)chroman-4-one]: at ratAChE, the SI came out at 7.5 and the IC50 came out at 2.5 ± 0.33 µM. For the same molecule, half-maximal inhibition against ratBuChE (IC50) required 18.7 ± 0.33 µM. For the same molecule, in test [1], the ORAC is 2.1 ± 0.02 μM of Trolox equivalent/μM of tested compound.

For the molecule `CCN(CCCCCCOc1cc(O)c2c(c1)OC(c1ccc(O)cc1)CC2=O)Cc1ccccc1` (stereo not drawn) [Compound 5h, 7-((6-(benzyl(ethyl)amino)hexyl)oxy)-5-hydroxy-2–(4-hydroxyphenyl)chroman-4-one], at ratAChE, the SI worked out at 4.7 and the IC50 worked out at 3.3 ± 0.09 µM. The same molecule had a concentration for half-maximal inhibition (IC50) against ratBuChE of 15.5 ± 0.52 µM. For the same molecule, the ORAC in test [1] is recorded as 2.3 ± 0.03 μM of Trolox equivalent/μM of tested compound.

In the case of `CCN(CCCCCCCCCCOc1cc(O)c2c(c1)OC(c1ccc(O)cc1)CC2=O)Cc1ccccc1` (stereo not drawn) [Compound 5i, 7-((10-(benzyl(ethyl)amino)decyl)oxy)-5-hydroxy-2–(4-hydroxyphenyl)chroman-4-one], on ratAChE, the SI was determined as 3.0 and the IC50 is 4.9 ± 0.16 µM. Also, on ratBuChE, half-maximal inhibition (IC50) was put at 14.7 ± 0.62 µM. In test [1], the ORAC is 2.1 ± 0.04 μM of Trolox equivalent/μM of tested compound.

Turning to `CCN(CCCCCCCCCCCCOc1cc(O)c2c(c1)OC(c1ccc(O)cc1)CC2=O)Cc1ccccc1` (stereo not drawn) [Compound 5j, 7-((12-(benzyl(ethyl)amino)dodecyl)oxy)-5-hydroxy-2–(4-hydroxyphenyl)chroman-4-one], the IC50 at ratAChE was determined as 6.5 ± 0.09 µM; against ratBuChE it was 15.9 ± 0.37 µM. Also, in test [1], the ORAC is recorded as 2.2 ± 0.05 μM of Trolox equivalent/μM of tested compound.

Molecule `O=C1CC(c2ccc(OCCCN3CCc4ccccc4C3)cc2)Oc2cc(OCCCN3CCc4ccccc4C3)cc(O)c21` (stereo not drawn) [Compound 7a, 7–(3-(3,4-dihydroisoquinolin-2(1H)-yl)propoxy)-2–(4-(3–(3,4-dihydroisoquinolin-2(1H)-yl)propoxy)phenyl)-5-hydroxychroman-4-one] displayed an SI on ratAChE of 2.0. Besides, the IC50 on ratAChE is 10.1 ± 0.41 µM; at ratBuChE, 20.2 ± 0.23 µM. Moreover, the ORAC in test [1] is 1.1 ± 0.02 μM of Trolox equivalent/μM of tested compound.

`CCN(CCCOc1ccc(C2CC(=O)c3c(O)cc(OCCCN(CC)Cc4ccccc4)cc3O2)cc1)Cc1ccccc1` (stereo not drawn) [Compound 7b, 7–(3-(benzyl(ethyl)amino)propoxy)-2–(4-(3-(benzyl(ethyl)amino)propoxy)phenyl)-5-hydroxychroman-4-one]: the SI at ratAChE was 2.5. Moreover, the IC50 on ratAChE was found to be 7.4 ± 0.29 µM; at ratBuChE, 18.7 ± 0.37 µM. The ORAC in test [1] is given as 1.2 ± 0.04 μM of Trolox equivalent/μM of tested compound.

Turning to `O=C1CC(c2ccc(OCCCN3CCC(Cc4ccccc4)CC3)cc2)Oc2cc(OCCCN3CCC(Cc4ccccc4)CC3)cc(O)c21` (stereo not drawn) [Compound 7c, 7–(3-(4-benzylpiperidin-1-yl)propoxy)-2–(4-(3–(4-benzylpiperidin-1-yl)propoxy)phenyl)-5-hydroxychroman-4-one], at ratAChE, the SI was found to be 2.9 and the IC50 was found to be 6.7 ± 0.16 µM. The same molecule registered an IC50 against ratBuChE of 19.4 ± 0.28 µM. In addition, the ORAC in test [1] is 1.2 ± 0.02 μM of Trolox equivalent/μM of tested compound.

Regarding `O=C1CC(c2ccc(OCCCN3CCC(c4ccccc4)CC3)cc2)Oc2cc(OCCCN3CCC(c4ccccc4)CC3)cc(O)c21` (stereo not drawn) [Compound 7d, 5-hydroxy-7–(3-(4-phenylpiperidin-1-yl)propoxy)-2–(4-(3–(4-phenylpiperidin-1-yl)propoxy)phenyl)chroman-4-one], the SI on ratAChE came out at 2.2. In addition, the IC50 was 9.3 ± 0.37 µM at ratAChE and 20.3 ± 0.26 µM against ratBuChE. In test [1], the ORAC is on record as 1.0 ± 0.03 μM of Trolox equivalent/μM of tested compound.

In turn, `CCN1CCN(CCCOc2ccc(C3CC(=O)c4c(O)cc(OCCCN5CCN(CC)CC5)cc4O3)cc2)CC1` (stereo not drawn) [Compound 7e, 7–(3-(4-ethylpiperazin-1-yl)propoxy)-2–(4-(3–(4-ethylpiperazin-1-yl)propoxy)phenyl)-5-hydroxychroman-4-one] registered an SI at ratAChE of 1.9. Also, the IC50 at ratAChE came out at 8.2 ± 0.47 µM; against ratBuChE, 15.8 ± 0.62 µM. Besides, the ORAC in test [1] was 1.5 ± 0.02 μM of Trolox equivalent/μM of tested compound.

For `O=C1CC(c2ccc(OCCCCN3CCc4ccccc4C3)cc2)Oc2cc(OCCCCN3CCc4ccccc4C3)cc(O)c21` (stereo not drawn) [Compound 7f, 7–(4-(3,4-dihydroisoquinolin-2(1H)-yl)butoxy)-2–(4-(4–(3,4-dihydroisoquinolin-2(1H)-yl)butoxy)phenyl)-5-hydroxychroman-4-one], at ratAChE, the SI was 3.8 and the IC50 was 5.4 ± 0.16 µM. The same molecule registered an IC50 against ratBuChE of 20.7 ± 0.55 µM. The ORAC in test [1] is reported as 1.1 ± 0.03 μM of Trolox equivalent/μM of tested compound.

Take `CCN(CCCCOc1ccc(C2CC(=O)c3c(O)cc(OCCCCN(CC)Cc4ccccc4)cc3O2)cc1)Cc1ccccc1` (stereo not drawn) [Compound 7g]: on ratAChE, the SI was 11.2 and the IC50 worked out at 1.4 ± 0.08 µM. Further, at ratBuChE, half-maximal inhibition (IC50) was put at 15.7 ± 0.29 µM. In test [1], the ORAC is reported as 1.2 ± 0.04 μM of Trolox equivalent/μM of tested compound.

As to `CCN(CCCCOc1ccc(C2CC(=O)c3c(O)cc(OCCCCN(CC)Cc4ccccc4OC)cc3O2)cc1)Cc1ccccc1OC` (stereo not drawn) [Compound 7h, 7–(4-(ethyl(2-methoxybenzyl)amino)butoxy)-2–(4-(4-(ethyl(2-methoxybenzyl)amino)butoxy)phenyl)-5-hydroxychroman-4-one], on ratAChE, the SI is 19.7 and the IC50 was determined as 0.86 ± 0.05 µM. On ratBuChE, this molecule gave an IC50 of 16.9 ± 0.34 µM. For the same molecule, the ORAC in test [1] is reported as 1.0 ± 0.04 μM of Trolox equivalent/μM of tested compound.

Turning to `O=C1CC(c2ccc(OCCCCN3CCN(Cc4ccccc4)CC3)cc2)Oc2cc(OCCCCN3CCN(Cc4ccccc4)CC3)cc(O)c21` (stereo not drawn) [Compound 7i, 7–(4-(4-benzylpiperazin-1-yl)butoxy)-2–(4–(4-(4-benzylpiperazin-1-yl)butoxy)phenyl)-5-hydroxychroman-4-one], on ratAChE, the SI was determined as 2.0 and the IC50 is 6.1 ± 0.21 µM. Also, at ratBuChE, half-maximal inhibition (IC50) was put at 12.3 ± 0.16 µM. Further, the ORAC in test [1] was 1.4 ± 0.03 μM of Trolox equivalent/μM of tested compound.

Consider `O=C1CC(c2ccc(OCCCCN3CCC(Cc4ccccc4)CC3)cc2)Oc2cc(OCCCCN3CCC(Cc4ccccc4)CC3)cc(O)c21` (stereo not drawn) [Compound 7j], for which, at ratAChE, the SI is on record as 11.2 and the IC50 was found to be 1.3 µM. In addition, the ORAC in test [1] is 1.1 ± 0.03 μM of Trolox equivalent/μM of tested compound.

With `CCN(CCCCCCOc1ccc(C2CC(=O)c3c(O)cc(OCCCCCCN(CC)Cc4ccccc4)cc3O2)cc1)Cc1ccccc1` (stereo not drawn) [Compound 7l], on ratAChE, the SI came out at 6.9 and the IC50 was 2.2 ± 0.13 µM. In addition, at ratBuChE, the IC50 was found to be 15.1 ± 0.28 µM. Moreover, the ORAC in test [1] was 1.2 ± 0.01 μM of Trolox equivalent/μM of tested compound.

For orientation: IC50 means the point on the concentration scale where inhibition reaches its midpoint.
